# Patent US7524869B2, “Taxanes having a C10 ester substituent” (Florida State University Research Foundation, Inc., priority 2000, dated 2009)
# Where two headings read alike, the source gives them in different places.
# Columns and labels:
# HCT116 = assay: In vitro cytotoxicity measured by the cell colony formation assay; type: cell-based; settings: read-out: IN VITRO ID 50 (nm) HCT116
# [1] = HCT116 cells, 72 h drug incubation, colonies counted after 7 days, ID50 = drug concentration producing 50% inhibition of colony formation
SMILES,"IC50 (HCT116; Homo sapiens, HCT-116)",melting point,IC50 (HCT116; [1])
"CCC(=O)O[C@H]1C(=O)[C@@]2(C)C([C@H](OC(=O)c3ccccc3)[C@]3(O)C[C@H](OC(=O)[C@H](O)[C@@H](NC(=O)c4ccccc4)c4cccs4)C(C)=C1C3(C)C)[C@]1(OC(C)=O)CO[C@@H]1C[C@@H]2O (stereo partly shown) [Compound 0687, 3′-Desphenyl-3′-(2-thienyl)-10-propionyl-10-deacetyl taxol]",< 1 nM,154 to 155 °C,–
C/C=C/C(=O)N[C@@H](c1ccoc1)[C@@H](O)C(=O)O[C@H]1C[C@@]2(O)[C@@H](OC(=O)c3ccccc3)C3[C@](C)(C(=O)[C@H](OC(=O)C4CC4)C(=C1C)C2(C)C)[C@@H](O)C[C@H]1OC[C@@]31OC(C)=O (stereo partly shown) [Compound 4944],–,–,< 1 nM
CC(=O)O[C@@]12CO[C@@H]1C[C@H](O)[C@@]1(C)C(=O)[C@H](OC(=O)C3CC3)C3=C(C)[C@@H](OC(=O)[C@H](O)[C@@H](NC(=O)OCC(C)C)c4ccsc4)C[C@@](O)([C@@H](OC(=O)c4ccccc4)C12)C3(C)C (stereo partly shown) [Compound 5011],–,–,< 10 nM
C/C=C/C(=O)N[C@@H](c1ccsc1)[C@@H](O)C(=O)O[C@H]1C[C@@]2(O)[C@@H](OC(=O)c3ccccc3)C3[C@](C)(C(=O)[C@H](OC(=O)C4CC4)C(=C1C)C2(C)C)[C@@H](O)C[C@H]1OC[C@@]31OC(C)=O (stereo partly shown) [Compound 5040],–,–,< 1 nM
CCC(=O)O[C@H]1C(=O)[C@@]2(C)C([C@H](OC(=O)c3ccccc3)[C@]3(O)C[C@H](OC(=O)[C@H](O)[C@H](C=C(C)C)NC(=O)OCC(C)C)C(C)=C1C3(C)C)[C@]1(OC(C)=O)CO[C@@H]1C[C@@H]2O (stereo partly shown) [Compound 5065],–,–,< 10 nM
CCCC(=O)O[C@H]1C(=O)[C@@]2(C)C([C@H](OC(=O)c3ccccc3)[C@]3(O)C[C@H](OC(=O)[C@H](O)[C@H](C=C(C)C)NC(=O)OCC(C)C)C(C)=C1C3(C)C)[C@]1(OC(C)=O)CO[C@@H]1C[C@@H]2O (stereo partly shown) [Compound 5144],–,–,< 10 nM
CC(=O)O[C@@]12CO[C@@H]1C[C@H](O)[C@@]1(C)C(=O)[C@H](OC(=O)C3CC3)C3=C(C)[C@@H](OC(=O)[C@H](O)[C@@H](NC(=O)OCC(C)C)C4CC4)C[C@@](O)([C@@H](OC(=O)c4ccccc4)C12)C3(C)C (stereo partly shown) [Compound 5232],–,–,< 10 nM
CCC(=O)O[C@H]1C(=O)[C@@]2(C)C([C@H](OC(=O)c3ccccc3)[C@]3(O)C[C@H](OC(=O)[C@H](O)[C@@H](NC(=O)OC(C)(C)C)c4ccoc4)C(C)=C1C3(C)C)[C@]1(OC(C)=O)CO[C@@H]1C[C@@H]2O (stereo partly shown) [Compound 5495],–,–,< 1 nM
CCC(=O)O[C@H]1C(=O)[C@@]2(C)C([C@H](OC(=O)c3ccccc3)[C@]3(O)C[C@H](OC(=O)[C@H](O)[C@@H](NC(=O)OC(C)(C)CC)c4ccco4)C(C)=C1C3(C)C)[C@]1(OC(C)=O)CO[C@@H]1C[C@@H]2O (stereo partly shown) [Compound 6522],–,–,< 1 nM
